Measurements reported in publication PMC8704707 (Pharmaceuticals, 2021).
≈ marks a conversion by molar mass, not a printed value. Counter-ions that a name gives are not always drawn. Like-named read-outs stand apart in the source and are kept apart here.

Tests used:
[1] = system: Acinetobacter baumannii ATCC 19606; test: Antibacterial microdilution broth method (EUCAST); assay type: cell-based
[2] = system: Staphylococcus epidermidis ATCC 12228; test: Antibacterial microdilution broth method (EUCAST); assay type: cell-based
[3] = system: methicillin-resistant Staphylococcus aureus ATCC 43300; test: Antibacterial microdilution broth method (EUCAST); assay type: cell-based; settings: ATCC 43300 / MRSA
[4] = system: Staphylococcus aureus ATCC 29213; test: Antibacterial microdilution broth method (EUCAST); assay type: cell-based
[5] = system: Klebsiella pneumoniae ATCC 10031; settings: for MIC KP 24 h: 24 h incubation; for MIC KP 48 h: 48 h incubation
[6] = system: Enterococcus faecalis ATCC 29212; test: Antibacterial microdilution broth method (EUCAST); assay type: cell-based
[7] = system: Escherichia coli ATCC 25922; test: Antibacterial microdilution broth method (EUCAST); assay type: cell-based
[8] = system: Pseudomonas aeruginosa ATCC 27853; test: Antibacterial microdilution broth method (EUCAST); assay type: cell-based
[9] = target: AChE from electric eel (EeAChE) (Electrophorus electricus, UniProt O42275); test: biochemical; assay type: biochemical
Sequence of AChE from electric eel (EeAChE) (O42275 24-633): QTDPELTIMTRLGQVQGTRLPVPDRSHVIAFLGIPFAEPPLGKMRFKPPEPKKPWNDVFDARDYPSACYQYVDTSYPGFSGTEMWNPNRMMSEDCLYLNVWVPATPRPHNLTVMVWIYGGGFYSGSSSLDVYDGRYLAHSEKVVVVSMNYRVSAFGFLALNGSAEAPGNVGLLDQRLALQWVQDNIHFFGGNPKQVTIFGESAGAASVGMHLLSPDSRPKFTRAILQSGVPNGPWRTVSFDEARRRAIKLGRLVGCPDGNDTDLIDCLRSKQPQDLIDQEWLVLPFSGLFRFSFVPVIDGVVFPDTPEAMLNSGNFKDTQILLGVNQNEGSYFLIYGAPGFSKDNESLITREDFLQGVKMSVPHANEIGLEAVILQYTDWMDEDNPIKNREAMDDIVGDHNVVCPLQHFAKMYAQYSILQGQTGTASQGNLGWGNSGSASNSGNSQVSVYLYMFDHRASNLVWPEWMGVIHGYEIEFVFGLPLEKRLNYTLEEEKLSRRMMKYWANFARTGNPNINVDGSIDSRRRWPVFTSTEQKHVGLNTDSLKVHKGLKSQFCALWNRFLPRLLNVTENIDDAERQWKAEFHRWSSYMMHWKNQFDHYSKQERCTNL

[10] = target: BuChE from equine serum (EqBuChE) (Equus caballus, UniProt P81908); test: biochemical
Sequence of BuChE from equine serum (EqBuChE) (P81908 whole entry): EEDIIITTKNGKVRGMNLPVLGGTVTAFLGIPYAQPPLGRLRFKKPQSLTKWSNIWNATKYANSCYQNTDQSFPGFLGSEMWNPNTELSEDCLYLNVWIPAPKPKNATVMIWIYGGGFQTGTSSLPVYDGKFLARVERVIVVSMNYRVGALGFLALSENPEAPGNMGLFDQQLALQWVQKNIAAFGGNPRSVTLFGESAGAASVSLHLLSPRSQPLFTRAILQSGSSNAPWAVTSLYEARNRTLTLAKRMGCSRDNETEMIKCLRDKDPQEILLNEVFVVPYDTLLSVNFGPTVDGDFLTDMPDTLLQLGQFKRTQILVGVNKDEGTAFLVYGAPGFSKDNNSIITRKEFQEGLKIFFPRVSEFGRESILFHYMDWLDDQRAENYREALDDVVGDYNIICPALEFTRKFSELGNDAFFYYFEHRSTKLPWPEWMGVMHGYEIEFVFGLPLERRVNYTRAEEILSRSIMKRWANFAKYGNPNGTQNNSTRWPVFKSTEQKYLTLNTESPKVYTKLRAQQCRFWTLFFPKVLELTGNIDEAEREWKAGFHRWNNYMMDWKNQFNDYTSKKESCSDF

[11] = system: Candida tropicalis ATCC 750; test: microbe, parasite or virus in culture; assay type: cell-based
[12] = system: Candida krusei ATCC 6258; test: microbe, parasite or virus in culture; assay type: cell-based; settings: Pichia kudriavzevii
[13] = system: Trichophyton interdigitale ATCC 9533; test: microbe, parasite or virus in culture; assay type: cell-based
[14] = system: Candida parapsilosis ATCC 22019; test: microbe, parasite or virus in culture; assay type: cell-based; settings: Lodderomyces parapsilosis
[15] = system: Candida albicans ATCC 24443; test: microbe, parasite or virus in culture; assay type: cell-based
[16] = ATCC19606, 24 h, read-out: MIC ACI 24 h
[17] = ATCC19606, 48 h, read-out: MIC ACI 48 h
[18] = ATCC12228, 24 h, read-out: MIC SE 24 h
[19] = ATCC12228, 48 h, read-out: MIC SE 48 h
[20] = ATCC29213, 24 h, read-out: MIC SA 24 h
[21] = ATCC29213, 48 h, read-out: MIC SA 48 h
[22] = ATCC29212, 24 h, read-out: MIC EF 24 h
[23] = ATCC29212, 48 h, read-out: MIC EF 48 h
[24] = ATCC25922, 24 h, read-out: MIC EC 24 h
[25] = ATCC25922, 48 h, read-out: MIC EC 48 h
[26] = ATCC27853, 24 h, read-out: MIC PA 24 h
[27] = ATCC27853, 48 h, read-out: MIC PA 48 h
[28] = mean ± SD, n = three independent experiments, ATCh 40 µM, read-out: IC50 AChE
[29] = mean ± SD, n = three independent experiments, BTCh 40 µM, read-out: IC50 BuChE

SMILES | MIC [1, 16] [µM] | MIC [1, 17] [µM] | MIC [2, 18] [µM] | MIC [2, 19] [µM] | MIC ([3]; 24 h, read-out: MIC MRSA 24 h) [µM] | MIC ([3]; 48 h, read-out: MIC MRSA 48 h) [µM] | MIC [4, 20] [µM] | MIC [4, 21] [µM] | MIC KP 24 h [5] [µM] | MIC KP 48 h [5] [µM] | MIC [6, 22] [µM] | MIC [6, 23] [µM] | MIC [7, 24] [µM] | MIC [7, 25] [µM] | MIC [8, 26] [µM] | MIC [8, 27] [µM] | Selectivity AChE/BuChE [9] | IC50 [9, 28] [µM] | IC50 [10, 29] [µM] | further results
CCN1CCN(C(=O)N[C@@H](C(=O)N[C@@H]2C(=O)N3[C@@H]2SC(C)(C)[C@@H]3C(=O)O)c2ccccc2)C(=O)C1=O [PIP, piperacillin sodium salt, reference compound] | > 59.3 | > 59.3 | > 59.3 | > 59.3 | 14.8 | 14.8 | 1.85 | 1.85 | >59.31 | >59.31 | 1.85 | 1.85 | 7.41 | 7.41 | 14.8 | 14.8 | – | – | – | –
[H]/N=C(\N)NN=Cc1c(O)cccc1Cl [Compound 1h, (E)-2-(6-Chloro-2-hydroxybenzylidene)hydrazine-1-carboximidamide] | 500 (≈ 106 µg/mL) | 500 (≈ 106 µg/mL) | 125 (≈ 26.6 µg/mL) | 250 (≈ 53.2 µg/mL) | > 500 | > 500 | 250 (≈ 53.2 µg/mL) | 500 (≈ 106 µg/mL) | >500 | >500 | > 500 | > 500 | > 500 | > 500 | > 500 | > 500 | 0.47 | 29.5 ± 0.93 | 62.3 ± 1.08 | –
[H]/N=C(\N)NN=Cc1cc(Cl)ccc1O [Compound 1g, (E)-2-(5-Chloro-2-hydroxybenzylidene)hydrazine-1-carboximidamide] | 500 (≈ 106 µg/mL) | 500 (≈ 106 µg/mL) | 62.5 (≈ 13.3 µg/mL) | 62.5 (≈ 13.3 µg/mL) | 500 (≈ 106 µg/mL) | 500 (≈ 106 µg/mL) | 250 (≈ 53.2 µg/mL) | 250 (≈ 53.2 µg/mL) | 500 (≈ 106 µg/mL) | 500 (≈ 106 µg/mL) | 125 (≈ 26.6 µg/mL) | 250 (≈ 53.2 µg/mL) | 500 (≈ 106 µg/mL) | 500 (≈ 106 µg/mL) | 500 (≈ 106 µg/mL) | 500 (≈ 106 µg/mL) | 0.83 | 37.4 ± 0.73 | 45.2 ± 0.86 | –
[H]/N=C(\N)NN=Cc1ccc(Cl)cc1O [Compound 1f, (E)-2-(4-Chloro-2-hydroxybenzylidene)hydrazine-1-carboximidamide] | 500 (≈ 106 µg/mL) | 500 (≈ 106 µg/mL) | 125 (≈ 26.6 µg/mL) | 125 (≈ 26.6 µg/mL) | 500 (≈ 106 µg/mL) | 500 (≈ 106 µg/mL) | 500 (≈ 106 µg/mL) | 500 (≈ 106 µg/mL) | 500 (≈ 106 µg/mL) | 500 (≈ 106 µg/mL) | 500 (≈ 106 µg/mL) | 500 (≈ 106 µg/mL) | 500 (≈ 106 µg/mL) | 500 (≈ 106 µg/mL) | 500 (≈ 106 µg/mL) | 500 (≈ 106 µg/mL) | 1.40 | 42.8 ± 1.33 | 30.6 ± 1.51 | –
N=C(N/N=C/c1ccc([N+](=O)[O-])o1)N/N=C/c1ccc([N+](=O)[O-])o1 [Compound 3c, (E)-2-[(5-Nitrofuran-2-yl)methylene]-N’-[(E)-(5-nitrofuran-2-yl)methylene]hydrazine-1-carboximidamide hydrochloride] | – | – | – | – | – | – | – | – | – | – | – | – | – | – | – | – | <0.08 | – | – | IC50 [9]: 40 ± 2.56 µM; IC50 ([10]; IC50 BuChE): > 500 µM
[H]/N=C(\N)NN=Cc1cccc(Cl)c1 [Compound 1c, (E)-2-(3-Chlorobenzylidene)hydrazine-1-carboximidamide] | – | – | – | – | – | – | – | – | – | – | – | – | – | – | – | – | 1.06 | – | 41.5 ± 3.06 | IC50 [9]: 43.9 ± 0.76 µM
[H]/N=C(\N)NN=Cc1ccco1 [Compound 3a, (E)-2-(Furan-2-ylmethylene)hydrazine-1-carboximidamide] | – | – | – | – | – | – | – | – | – | – | – | – | – | – | – | – | 0.50 | 41.1 ± 0.54 | 82.3 ± 3.02 | –
NC(=O)N/N=C/c1ccc([N+](=O)[O-])o1 [Compound 3d, (E)-2-[(5-Nitrofuran-2-yl)methylene]hydrazine-1-carboxamide] | > 500 | > 500 | 31.2 (≈ 6.19 µg/mL) | 62.5 (≈ 12.4 µg/mL) | 62.5 (≈ 12.4 µg/mL) | 125 (≈ 24.8 µg/mL) | 62.5 (≈ 12.4 µg/mL) | 125 (≈ 24.8 µg/mL) | 62.5 (≈ 12.4 µg/mL) | 125 (≈ 24.8 µg/mL) | 500 (≈ 99.1 µg/mL) | 500 (≈ 99.1 µg/mL) | 125 (≈ 24.8 µg/mL) | 250 (≈ 49.5 µg/mL) | > 500 | > 500 | <0.07 | 36.6 ± 0.69 | > 500 | –
OC(Cn1cncn1)(Cn1cncn1)c1ccc(F)cc1F [FLU, fluconazole, reference compound] | – | – | – | – | – | – | – | – | – | – | – | – | – | – | – | – | – | – | – | IC50 ([11]; ATCC750, 24 h, read-out: IC50 (50% growth inhibition) CT 24 h): 6.5 µM; IC50 ([11]; ATCC750, 48 h, read-out: IC50 (50% growth inhibition) CT 48 h): 6.5 µM; IC50 ([12]; ATCC6258, 24 h, read-out: IC50 (50% growth inhibition) CK 24 h): > 104 µM; IC50 ([12]; ATCC6258, 48 h, read-out: IC50 (50% growth inhibition) CK 48 h): > 104 µM; IC50 ([13]; ATCC9533, 72 h, read-out: IC50 (50% growth inhibition) TI 72 h): 52.2 µM; IC50 ([13]; ATCC9533, 120 h, read-out: IC50 (50% growth inhibition) TI 120 h): 52.2 µM; IC50 ([14]; ATCC22019, 24 h, read-out: IC50 (50% growth inhibition) CP 24 h): 3.3 µM; IC50 ([14]; ATCC22019, 48 h, read-out: IC50 (50% growth inhibition) CP 48 h): 3.3 µM; IC50 ([15]; ATCC24443, 24 h, read-out: IC50 (50% growth inhibition) CA 24 h): 6.5 µM; IC50 ([15]; ATCC24443, 48 h, read-out: IC50 (50% growth inhibition) CA 48 h): 6.5 µM
